Results: EPA's CvTdb concentration-time database
Values belong to the compound of their own block, whether it stands above or below them.

How the values were obtained:
Rat [1] = experiment: concentration in brain after dosing; details: 0.5 h; dosed: 2-Methyltetrahydrofuran; 40 mg/kg; iv; Female; Harlan Sprague Dawley
Rat [2] = experiment: concentration in plasma after dosing; details: 2 h; dosed: 2-Methyltetrahydrofuran; 40 mg/kg; iv; Female; Harlan Sprague Dawley
Rat [3] = experiment: concentration in plasma after dosing; details: 2 h; dosed: 2-Methyltetrahydrofuran; 40 mg/kg; iv; Male; Harlan Sprague Dawley
Rat [4] = experiment: concentration in plasma after dosing; details: 4 h; dosed: 2-Methyltetrahydrofuran; 40 mg/kg; iv; Female; Harlan Sprague Dawley
Rat [5] = experiment: concentration in plasma after dosing; details: 2 min; dosed: 2-Methyltetrahydrofuran; 40 mg/kg; iv; Female; Harlan Sprague Dawley
Rat [6] = experiment: concentration in plasma after dosing; details: 0.75 h; dosed: 2-Methyltetrahydrofuran; 40 mg/kg; iv; Male; Harlan Sprague Dawley
Rat [7] = experiment: concentration in plasma after dosing; details: dosed: Fluorotelomer alcohol 8+2, 12 mg/kg, oral, Male, Harlan Sprague Dawley
Rat [8] = experiment: concentration in plasma after dosing; details: dosed: 678-39-7, 40 mg/kg, iv, Female, Harlan Sprague-Dawley
Rat [9] = experiment: concentration in plasma after dosing; details: 10 min; dosed: Gemfibrozil; 100 mg/kg; oral; Male; Sprague-Dawley
Rat [10] = experiment: concentration in plasma after dosing; details: 1 h; dosed: Perfluorohexanoic Acid; 40 mg/kg; iv; Male; F344
Rat [11] = experiment: concentration in brain after dosing; details: 0.5 h; dosed: Perfluorohexanoic Acid; 80 mg/kg; oral; Female; Harlan Sprague Dawley
Rat [12] = experiment: concentration in liver after dosing; details: 1848 h; dosed: Perfluorooctane Sulfonate; 20 mg/kg; oral; Male; Harlan Sprague Dawley
Rat [13] = experiment: concentration in kidney after dosing; details: 6 h; dosed: Perfluorooctane Sulfonate; 2 mg/kg; oral; Female; Harlan Sprague Dawley
Rat [14] = experiment: concentration in plasma after dosing; details: dosed: Perfluorooctane Sulfonate, 2 mg/kg, oral, Female, Harlan Sprague Dawley
Rat [15] = experiment: concentration in kidney after dosing; details: 3360 h; dosed: Perfluorooctane Sulfonate; 20 mg/kg; oral; Male; Harlan Sprague Dawley
Rat [16] = experiment: concentration in brain after dosing; details: 864 h; dosed: Perfluorooctane Sulfonate; 20 mg/kg; oral; Male; Harlan Sprague Dawley
Rat [17] = experiment: concentration in liver after dosing; details: 1848 h; dosed: Perfluorooctane Sulfonate; 20 mg/kg; oral; Female; F344
Rat [18] = experiment: concentration in liver after dosing; details: 24 h; dosed: Perfluorooctane Sulfonate; 2 mg/kg; oral; Female; Harlan Sprague Dawley

- concentration in brain (Rat [1]): 12.7 µg/mL
- concentration in plasma (Rat [2]): 9.86 µg/mL
- concentration in plasma (Rat [3]): 12.1 µg/mL
- concentration in plasma (Rat [4]): 0.245 µg/mL
- concentration in plasma (Rat [5]): 55.3 µg/mL
- concentration in plasma (Rat [6]): 29.2 µg/mL
Structure (SMILES): CC1CCCO1 (stereo unspecified) [2-Methyltetrahydrofuran]

- concentration in plasma (Rat [7]; 0.75 h): 313 ng/mL
- concentration in plasma (Rat [7]; 12 h): 197 ng/mL
- concentration in plasma (Rat [8]; 1 h): 1350 ng/mL
- concentration in plasma (Rat [8]; 24 h): 347 ng/mL
Structure (SMILES): O=C(O)CCC(F)(F)C(F)(F)C(F)(F)C(F)(F)C(F)(F)C(F)(F)C(F)(F)F [Fluorotelomer acid 7+3]

- concentration in plasma (Rat [9]): 50.4 µg/mL
Structure (SMILES): Cc1ccc(C)c(OCCCC(C)(C)C(=O)O)c1 [Gemfibrozil]

Structure (SMILES): O=C(O)C(F)(F)C(F)(F)C(F)(F)C(F)(F)C(F)(F)F [Perfluorohexanoic Acid]
- concentration in plasma (Rat [10]): 20100 ng/mL
- concentration in brain (Rat [11]): 1270 ng/g

Structure (SMILES): O=S(=O)([O-])C(F)(F)C(F)(F)C(F)(F)C(F)(F)C(F)(F)C(F)(F)C(F)(F)C(F)(F)F [Perfluorooctane Sulfonate]
- concentration in liver (Rat [12]): 37900 ng/g
- concentration in kidney (Rat [13]): 12700 ng/g
- concentration in plasma (Rat [14]; 12 h): 6280 ng/mL
- concentration in plasma (Rat [14]; 528 h): 2270 ng/mL
- concentration in kidney (Rat [15]): 13900 ng/g
- concentration in brain (Rat [16]): 2330 ng/g
- concentration in liver (Rat [17]): 55400 ng/g
- concentration in liver (Rat [18]): 29400 ng/g
